Laboratory results taken from ChEMBL document CHEMBL1921747, “Novel cytotoxic chalcones from Litsea rubescens and Litsea pedunculata” (Bioorg Med Chem Lett, 2011).
≈ marks a conversion by molar mass, not a printed value.

Assays:
[1] = system: HL-60; experiment: Cytotoxicity against human HL60 cells after 48 hrs by MTT assay; assay type: functional, cell-based; settings: HL-60, 48 h
[2] = system: A-431; experiment: Cytotoxicity against human A431 cells after 48 hrs by MTT assay; assay type: functional, cell-based; settings: A-431, 48 h
[3] = system: HepG2; experiment: Cytotoxicity against human HepG2 cells after 48 hrs by MTT assay; assay type: functional, cell-based; settings: HepG2, 48 h
[4] = system: HL-60; experiment: Ratio of cisplatin IC50 to compound IC50 for human HL60 cells; assay type: functional

| Compound | IC50 [1] [µg/mL] | IC50 [2] [µg/mL] | IC50 [3] [µg/mL] | Ratio IC50 [4] |
| --- | --- | --- | --- | --- |
| COC1=CC(=O)C2(OC2C)C(O)=C1C(=O)/C=C/c1ccccc1 (configuration not stated) [LITSEAONE A] | 6.1 (≈ 19.5 µM) | 11.1 (≈ 35.5 µM) | 23 (≈ 73.6 µM) | 2.1 |
| COc1cc(O)c(C(=O)/C=C/c2ccccc2)c2c1OC(C)O2 (configuration not stated) [LITSEAONE B] | 10.2 (≈ 32.7 µM) | 13.9 (≈ 44.5 µM) | 21.5 (≈ 68.8 µM) | – |
